Data reported in patent US6949528B1, “Compositions containing lysophosphatidic acids which inhibit apoptosis and uses thereof” (priority 1998, dated 2005).

Experiments:
Assay type in all cases: cell-based
[1] = tested on: rat neonatal cardiomyocytes; test: Cardiomyocyte death induced by ischemia and reperfusion; conditions: in mixture with PEG, FIG. 14
Description: (§1) Cardiomyocytes were prepared from hearts of day-old Sprague Dawley rats by trypsinization and mechanical disaggregation (Simpson, (1985)) Circ. Res. 56:884-894. The cells were resuspended in MEM, 1×MEM vitamins (Gibco), 5% fetal bovine serum and 50 U/ml penicillin-G and pre-plated for 30 minutes to reduce contamination of non-myocytes. The non-adherent cardiac myocytes were separated and seeded in 2 ml in 35 mm dishes at a density of 3.5×10^5 viable cells per ml. The cells were allowed to adhere for 16-24 hours in a 37° C./5% CO2 humidified incubator.
For serum deprivation, the medium was replaced with fresh serum-free RPMI, whereas serum/glucose deprivation was performed using glucose-free RPMI. The induction of cell death by adriamycin or C2-ceramide was accomplished by the addition of the agent prepared in serum-free RPMI. As a model of ischemia, cultures in serum and glucose free RPMI were placed in an airtight chamber and the latter was continuously perfused with oxygen-free gas overlay of 95% N2/5% CO2 for 8 hours at 37° C. […]
(§2) Because cardiomyocytes are terminally differentiated non-dividing cells, viability was determined by measurement of the decrease in the relative number of adherent cells. […] Adherent cardiomyocytes were collected from culture dishes using 0.25% Trypsin/0.05% EDTA and counted on Coulter Counter ZM and Coulter Channelyzer 256.

[2] = tested on: rat neonatal cardiomyocytes; test: Cardiomyocyte death induced by serum/glucose deprivation; conditions: serum/glucose deprivation
Description: as §1
For serum deprivation, the medium was replaced with fresh serum-free RPMI, whereas serum/glucose deprivation was performed using glucose-free RPMI. The induction of cell death by adriamycin or C2-ceramide was accomplished by the addition of the agent prepared in serum-free RPMI. As a model of ischemia, cultures in serum and glucose free RPMI were placed in an airtight chamber and the latter was continuously perfused with oxygen-free gas overlay of 95% N2/5% CO2 for 8 hours at 37° C. To model reperfusion of the ischemic cells, 10% fetal bovine serum, 2 g/L of glucose were added and the cultures were returned to a normal oxygen gas overlay (37° C./5% CO2) in a humidified incubator for 16 hours.
T investigate effects of LPA, LPA plus other phospholipids, PEG or their mixtures on cell death, various combinations of these components were added to cells in serum free medium at the beginning of cytotoxic treatment.
as §2

[3] = tested on: C3H/10T1/2 cells; test: Anti-apoptotic activity assay: serum deprivation of C3H/10T1/2 cells
From the text: In order to determine the […] of the claimed invention, the following method of analysis was used. The cell assay is described in detail in U.S. Pat. Nos. 5,637,486, 5,620,888, and 5,681,703, and Tomei et al. (1993) Proc Natl. Aci. 90:853-857. Briefly, mouse fibroblast C3H/10T1/2 cells (clone 8) were obtained from ATCC (Rockville, Md.) and were maintained in exponential growth phase in which the cell cycle is randomly distributed and no cells are arrested in G0, and in quiescence. Exponential growth phase was assured by seeding at 2000 cells per 1 ml (5 ml for 60 mm culture plate) five days prior to the beginning of the experiment. Assays were performed on cells only up to passage 15. At T=0, cultures were transferred to serum-free medium, as an appropriate stimulus, and seed extracts were added. Controls included 10^−7 and 5×10^−8 M 12-O-tetradecanoyl phorbol-13-acetate (TPA) to ensure the responsiveness of the cell culture. The samples were added to serum free medium and sterile filtered prior to addition to the cultures. Assays were performed in triplicate or quadruplicate. Analyses of the cell responses were made between 18 and 28 hours of serum deprivation. Two assays were performed on each cell culture plate consisting of differential cell counts.
1. All non-adherent or loosely adherent cells were removed from the culture dish and counted by appropriate techniques, typically counting by electronic particle counting instrument. These are the apoptotic cells, the serum deprived released cells (SDR), released by the action of cultivation in serum-free medium. Approximately 95% of these released cells are apoptotic as shown by both ultrastructure analysis and DNA fragmentation analysis.
2. The remaining adherent cells (ADH) were exposed to a buffered, typically pH 7.3, balanced salt solution such as a Hanks Balanced Salt Solution without calcium and magnesium salts containing 0.05% trypsin and 0.53 mM ethylene diaminetetraacetic acid (EDTA). Each culture was incubated at either room temperature or 37(C on a rocking platform to ensure uniform distribution of the trypsin reagent over the culture surface. After a standardized period of time, typically 10 minutes, the released cells were removed from each culture dish and measured by the same means as described above, typically electronic particle counting. This ADH cell count is comprised of both trypsin resistant and trypsin sensitive cells as described in U.S. Pat. Nos. 5,637,486, 5,620,888, and 5,681,703.
Anti-apoptotic activity is expressed in the following examples as the calculated concentration of material ((g/ml of media) required to save 50% of the cells released on serum free treatment.
The ability of 18:1-LPA an other LPAs to protect serum-starved cells from apoptotic death was measured using the C3H/10T1/2 cell assay, performed as described in Example 2. The effect of various compounds on the ability of lysophosphatidic acid to protect serum-starved cells from apoptotic death was also measured. Log phase cells were seeded in 60 mm Petri dishes at 175-350 cells per cm2 and maintained in Basal Medium Eagle (BME) supplemented with 10% Heat Inactivated Fetal Bovine Serum (HIFBS). On day 3 the cells were given fresh media. Treatment began on day 5 when the media containing serum was removed and replaced with the LPA mixture to be tested. After 24 hours of treatment, day 6, serum deprived released (SDR) cells (the […] cell population) and adherent (ADH) cells were separated and counted using an electronic cell counter (Coulter Corporation, Hialea, Fla.). […]

[4] = serum-deprived C3H/10T1/2 cells, 24 hours of treatment

Structure (SMILES): CCCCCCCC/C=C\CCCCCCCC(=O)OCC(O)COP(=O)(O)O (stereo not shown) [18:1 LPA, oleoyl-lysophosphatidic acid, reference compound]
- protection against cardiomyocyte death [1]: equally protect
- Concentration ranges for cardiomyocyte protection [2]: 0.3 to 10 µM
- Maximum effect relative to 18:1 LPA in cardiomyocytes [2]: 100%
- cells protected ([3]; 0.75 (g/ml added together with PS, FIG. 2)): approximately 75%
- cells protected ([3]; 1:1 PG:PC particles with 23.5% by weight 18:1-LPA, FIG. 3): about 57%
- cells protected ([3]; 5 (M, FIG. 5), medium alone 30%): about 62%
- cells protected ([3]; 5 (M, FIG. 6)): 75%
- cells protected ([3]; 15 (M, FIG. 6)): 80%
- efficacy ([3]; 18:1-LPA/PG particles with 5 to 10 mol % PE-PEG (2000 MW), FIG. 2): reduced efficacy
- cells saved ([3]; 23.5 weight percent with PG, FIG. 3): about 50%
- cells protected ([3]; 30% (by weight) mixture with 1:1 PA:PI, equivalent to Five Phospholipid Mixture at 10 (g/ml, FIG. 7), medium alone 38%): about 82%
- cells protected from apoptosis ([3]; LPA equivalent to 10 (g/ml Five Phospholipid Mixture, 10% by weight with PG, FIG. 3)): approximately 65%
- anti-apoptotic activity ([3]; combined with BME (containing calcium) and filtered): appeared to be inhibited
- anti-apoptotic activity ([3]; combined with BSA in BME (containing calcium)): preserved the anti-apoptotic activity
- protection from apoptosis ([3]; combined with polyethylene glycol or BSA): protects serum-deprived 10T1/2 cells from apoptosis
- protection from serum deprivation-induced cell death ([3]; incorporated into PC, PC/PE-PEG, or PC/EtPC, FIG. 8): effective in protecting cells from serum deprivation-induced cell death
- cells protected ([3]; incorporated into phosphatidyl glycerol (PG), FIG. 2): up to 90%
- Concentration for Max Effect [3, 4]: 10 µM
- Maximum effect relative to 18:1 LPA [3, 4]: 100%
